In patent US10098870B2 (JENKEM TECHNOLOGY CO., LTD. (BEIJING), priority 2013, dated 2018):
“Also recorded” adds a separate entry of the source. Where two headings read alike, the source gives them in different places.

Tests used:
[1] = in words; cited from earlier work
[2] = tested on: A549 human non-small cell lung cancer cells; assay: Anti-tumor effect on xenograft tumor model of A549 in nude mice (Example 10);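 as to all read-outs here: nude mice bearing A549 xenografts established by inoculating 1.0×10^7 cells in PBS at the right shoulder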; conditions: 15 mg/kg i.v. BIW×4W; for Tumor volume: mean ± SE
Procedure: A549 cells were cultured with a monolayer in vitro in RPMI1640 medium supplied with heat-inactivated fetal bovine serum with a volume ratio of 10%, and an incubator at 37° C. with the air containing CO2 with a proportion of 5%. The tumor cells were passaged with digestion by trypsin-EDTA twice a week. The cells in the exponential growth phase were collected, counted, and used for inoculation.
(§1) 1.0×10^7 of A549 tumor cells were suspended in 0.1 ml of PBS, inoculated to each nude mouse at the right shoulder, and there were totally 36 mice inoculated.

[3] = Body weight, survival and tolerance of mice bearing Calu-6 (Example 9);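 as to all read-outs here: nude mice bearing Calu-6 tumours, established by implanting 5.0×10^6 cells at the right shoulder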; conditions: 15 mg/kg i.v. BIW×4W; for Body weight of animal: mean ± SE
Procedure: (§2) 5.0×10^6 of Calu-6 tumor cells were suspended in 0.1 ml of PBS, inoculated to each nude mouse at the right shoulder, and there were totally 34 mice inoculated.

[4] = tested on: H460 human non-small cell lung cancer cells; conditions: 15 mg/kg i.v. BIW×3W; for Tumor volume: mean ± SE
Procedure: (§3) 5.0×10^6 of H460 tumor cells were suspended in 0.1 ml of PBS, inoculated to each nude mouse at the right shoulder, and there were totally 34 mice inoculated. 8 days later the mean tumor volume was desired to reach about 143 mm^3, the mice with a smaller or larger tumor were removed and the remaining 24 mice were divided into groups randomly according to tumor volume and administrated.

[5] = Body weight, survival and tolerance of mice bearing H460 (Example 8); conditions: 15 mg/kg i.v. BIW×3W; for Body weight of animal: mean ± SE
Procedure: as §3

[6] = Body weight, survival and tolerance of mice bearing A549 (Example 10);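 as to all read-outs here: nude mice, each given 1.0×10^7 A549 tumor cells in the right shoulder region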; conditions: 15 mg/kg i.v. BIW×4W; for Body weight of animal: mean ± SE
Procedure: as §1

[7] = tested on: Calu-6 human lung cancer cell; assay: Anti-tumor effect on xenograft tumor model of Calu-6 in nude mice (Example 9);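 as to all read-outs here: each nude mouse received 5.0×10^6 Calu-6 cells implanted at the right shoulder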; conditions: 15 mg/kg i.v. BIW×4W; for Tumor volume: mean ± SE
Procedure: Calu-6 cells were cultured with a monolayer in vitro in MEM medium supplied with heat-inactivated fetal bovine serum with a volume ratio of 10%, and an incubator at 37° C. with the air containing CO2 with a proportion of 5%. The tumor cells were passaged with digestion by trypsin-EDTA twice a week. The cells in the exponential growth phase were collected, counted, and used for inoculation.
as §2

[8] = tested on: human hepatoma cell plc/prf/5; assay: Anti-tumor effect on xenograft tumor model of plc/prf/5 in nude mice (Example 6); conditions: for Tumor volume: 25 mg/kg i.v. QD×5, mean ± SE
Excerpt: 10 days later the mean tumor volume was desired to reach about 161 mm^3, the mice with a smaller or larger tumor were removed and the remaining 24 mice were divided into groups randomly according to tumor volume and administrated.
Wherein QW×4W represents intravenous injection once a week for 4 weeks, BIW×4W represents intravenous injection once every two weeks for 4 weeks, the same below.

[9] = Body weight, survival and tolerance of mice bearing Hep3B (Example 7); assay type: in vivo, mouse; conditions: 15 mg/kg i.v. (QD×5)×2W, mean ± SE
[10] = tested on: human hepatoma cell Hep3B; assay: Anti-tumor effect on xenograft tumor model of Hep3B in immune deficiency mice (Example 7); conditions: for Tumor volume: mean ± SE
[11] = Body weight, survival and tolerance of mice bearing plc/prf/5 (Example 6); assay type: in vivo, nude mouse; conditions: for Body weight of animal: 25 mg/kg i.v. QD×5, mean ± SE
Excerpt: Wherein QW×4W represents intravenous injection once a week for 4 weeks, BIW×4W represents intravenous injection […] for 4 weeks, the same below. (2) Experimental Results

[12] = tested on: human hepatoma cell plc/prf/5; assay: Anti-tumor effect on subcutaneous transplantation tumor model of plc/prf/5 in NOD/SCID mice (Example 5); assay type: in vivo, NOD/SCID mouse; conditions: for Tumor volume: 10 mg/kg (counted with rapamycin) i.v. Q2W×2W, mean ± SE
Procedure: The tumor cells were passaged with digestion by trypsin-EDTA twice a week. The cells in the exponential growth phase were collected, counted, and used for inoculation.
1×10^7 of plc/prf/5 tumor cells were suspended in 0.1 ml of mixed solution (PBS:Matrigel=4:1), inoculated to each NOD/SCID mouse at the right shoulder.
Wherein Q2W×2W represents intravenous injection […] for 2 weeks, the same below. (2) Experimental Results

[13] = acids, bases, physiological conditions; in words; cited from earlier work
[14] = 5-FU 25 mg/kg, LPR-2 30 and 45 mg/kg
[15] = 15 mg/kg i.v. (QD×5)×2W, vs physiological saline
[16] = 44th day, 15 mg/kg i.v. (QD×5)×2W, Mean ± SEM

## CO[C@H]1C[C@@H]2CC[C@@H](C)[C@@](O)(O2)C(=O)C(=O)N2CCCC[C@H]2C(=O)O[C@H]([C@H](C)C[C@@H]2CC[C@@H](OCCO)[C@H](OC)C2)CC(=O)[C@H](C)/C=C(\C)[C@@H](O)[C@@H](OC)C(=O)[C@H](C)C[C@H](C)/C=C/C=C/C=C/1C [Everolimus, 42-O-(2-hydroxyethyl)-rapamycin]
[1]
  water-solubility: better water-solubility than that of rapamycin

## CC(=O)O[C@H]1C(=O)[C@@]2(C)[C@H]([C@H](OC(=O)c3ccccc3)[C@]3(O)C[C@H](OC(=O)[C@H](O)[C@@H](NC(=O)c4ccccc4)c4ccccc4)C(C)=C1C3(C)C)[C@]1(OC(C)=O)CO[C@@H]1C[C@@H]2O [Paclitaxel, reference compound]
[2]
  TGD (to 1,000 mm^3): >7
[2]; vs physiological saline
  T/C (%) RTV: 24%
  T/C (%) TW: 19%
[2]; 52nd day, Mean ± SEM
  RTV: 2.35 ± 0.16
  Tumor weight: 253 ± 52 mg
[2]; day 24 after inoculation
  Tumor volume: 138 ± 13 mm^3
[2]; day 28 after inoculation
  Tumor volume: 196 ± 24 mm^3
[2]; day 31 after inoculation
  Tumor volume: 230 ± 35 mm^3
[2]; day 35 after inoculation
  Tumor volume: 260 ± 49 mm^3
[2]; day 38 after inoculation
  Tumor volume: 265 ± 48 mm^3
[2]; day 42 after inoculation
  Tumor volume: 294 ± 41 mm^3
[2]; day 45 after inoculation
  Tumor volume: 327 ± 54 mm^3
[2]; day 49 after inoculation
  Tumor volume: 342 ± 54 mm^3
[2]; day 52 after inoculation
  Tumor volume: 331 ± 49 mm^3
[3]; 6 animals per group
  N, number of surviving animals after completion of the treatment: 6
[3]; day 17 after inoculation
  Body weight of animal: 20.5 ± 0.2 g
[3]; day 21 after inoculation
  Body weight of animal: 20.5 ± 0.3 g
[3]; day 24 after inoculation
  Body weight of animal: 19.6 ± 0.4 g
[3]; day 28 after inoculation
  Body weight of animal: 19.8 ± 0.4 g
[3]; day 31 after inoculation
  Body weight of animal: 19.7 ± 0.6 g
[3]; day 35 after inoculation
  Body weight of animal: 20.1 ± 0.5 g
[3]; day 38 after inoculation
  Body weight of animal: 20.1 ± 0.4 g
[4]
  TGD (to 1,000 mm^3): 7
[4]; vs physiological saline
  T/C (%) RTV: 59%
  T/C (%) TW: 66%
[4]; 29th day, Mean ± SEM
  RTV: 9.03 ± 0.93
  Tumor weight: 1053 ± 146 mg
[4]; day 8 after inoculation
  Tumor volume: 143 ± 15 mm^3
[4]; day 12 after inoculation
  Tumor volume: 295 ± 42 mm^3
[4]; day 15 after inoculation
  Tumor volume: 400 ± 70 mm^3
[4]; day 19 after inoculation
  Tumor volume: 519 ± 97 mm^3
[4]; day 22 after inoculation
  Tumor volume: 680 ± 110 mm^3
[4]; day 26 after inoculation
  Tumor volume: 944 ± 117 mm^3
[4]; day 29 after inoculation
  Tumor volume: 1,281 ± 184 mm^3
[5]; 6 animals per group
  N, number of surviving animals after completion of the treatment: 6
[5]; day 8 after inoculation
  Body weight of animal: 20.1 ± 0.4 g
[5]; day 12 after inoculation
  Body weight of animal: 19.9 ± 0.3 g
[5]; day 15 after inoculation
  Body weight of animal: 19.8 ± 0.2 g
[5]; day 19 after inoculation
  Body weight of animal: 19.5 ± 0.2 g
[5]; day 22 after inoculation
  Body weight of animal: 18.6 ± 0.3 g
[6]; 6 animals per group
  N, number of surviving animals after completion of the treatment: 6
[6]; day 24 after inoculation
  Body weight of animal: 20.6 ± 0.4 g
[6]; day 28 after inoculation
  Body weight of animal: 20.8 ± 0.4 g
[6]; day 31 after inoculation
  Body weight of animal: 20.6 ± 0.4 g
[6]; day 35 after inoculation
  Body weight of animal: 20.8 ± 0.5 g
[6]; day 38 after inoculation
  Body weight of animal: 20.8 ± 0.6 g
[6]; day 42 after inoculation
  Body weight of animal: 21.6 ± 0.6 g
[6]; day 45 after inoculation
  Body weight of animal: 21.3 ± 0.6 g
[6]; day 49 after inoculation
  Body weight of animal: 21.3 ± 0.7 g
[6]; day 52 after inoculation
  Body weight of animal: 21.8 ± 0.6 g
[7]
  TGD (to 1,000 mm^3): >8
[7]; vs physiological saline
  T/C (%) RTV: 16%
  T/C (%) TW: 13%
[7]; 42nd day, Mean ± SEM
  RTV: 2.31 ± 0.53
  Tumor weight: 202 ± 52 mg
[7]; day 14 after inoculation
  Tumor volume: 138 ± 14 mm^3
[7]; day 17 after inoculation
  Tumor volume: 159 ± 18 mm^3
[7]; day 21 after inoculation
  Tumor volume: 222 ± 23 mm^3
[7]; day 24 after inoculation
  Tumor volume: 219 ± 26 mm^3
[7]; day 28 after inoculation
  Tumor volume: 229 ± 37 mm^3
[7]; day 31 after inoculation
  Tumor volume: 264 ± 53 mm^3
[7]; day 35 after inoculation
  Tumor volume: 281 ± 59 mm^3
[7]; day 38 after inoculation
  Tumor volume: 282 ± 60 mm^3
[7]; day 42 after inoculation
  Tumor volume: 314 ± 72 mm^3

## O=c1[nH]cc(F)c(=O)[nH]1 [5-FU, reference compound]
[8]; [14]
  anti-tumor effect (in words): obvious anti-tumor effect
[8]; day 10 after inoculation
  Tumor volume: 170 ± 16 mm^3
[8]; day 13 after inoculation
  Tumor volume: 118 ± 7 mm^3
[8]; day 17 after inoculation
  Tumor volume: 69 ± 4 mm^3
[9]; day 20 after inoculation
  Body weight of animal: 19.4 ± 0.4 g
[9]; day 23 after inoculation
  Body weight of animal: 19.7 ± 0.3 g
[9]; day 27 after inoculation
  Body weight of animal: 18.6 ± 0.3 g
[9]; day 30 after inoculation
  Body weight of animal: 18.1 ± 0.3 g
[9]; day 34 after inoculation
  Body weight of animal: 18.5 ± 0.4 g
[9]; day 37 after inoculation
  Body weight of animal: 18.3 ± 0.3 g
[9]; day 41 after inoculation
  Body weight of animal: 18.1 ± 0.3 g
[10]; 15 mg/kg i.v. (QD×5)×2W
  TGD (to 1,000 mm^3): 6
[10]; [15]
  T/C (%) RTV: 106%
  T/C (%) TW: 109%
[10]; 5-FU 15 mg/kg, LPR-2 30 and 45 mg/kg
  anti-tumor effect (in words): not significant
[10]; [16]
  RTV: 4.53 ± 0.32
  Tumor weight: 1695 ± 289 mg
[10]; day 16 after inoculation, 15 mg/kg i.v. (QD×5)×2W
  Tumor volume: 453 ± 66 mm^3
[10]; day 20 after inoculation, 15 mg/kg i.v. (QD×5)×2W
  Tumor volume: 567 ± 84 mm^3
[10]; day 23 after inoculation, 15 mg/kg i.v. (QD×5)×2W
  Tumor volume: 667 ± 105 mm^3
[10]; day 27 after inoculation, 15 mg/kg i.v. (QD×5)×2W
  Tumor volume: 820 ± 149 mm^3
[10]; day 30 after inoculation, 15 mg/kg i.v. (QD×5)×2W
  Tumor volume: 850 ± 150 mm^3
[10]; day 34 after inoculation, 15 mg/kg i.v. (QD×5)×2W
  Tumor volume: 1,123 ± 226 mm^3
[10]; day 37 after inoculation, 15 mg/kg i.v. (QD×5)×2W
  Tumor volume: 1,500 ± 295 mm^3
[10]; day 41 after inoculation, 15 mg/kg i.v. (QD×5)×2W
  Tumor volume: 1,793 ± 342 mm^3
[10]; day 44 after inoculation, 15 mg/kg i.v. (QD×5)×2W
  Tumor volume: 2,114 ± 395 mm^3
[11]; [14]
  toxicity / tolerance (in words): so toxic with this dosage that all the animals died; also recorded: a significant toxicity and the whole group of animals died
[11]; day 10 after inoculation
  Body weight of animal: 19.6 ± 0.3 g
[11]; day 17 after inoculation
  Body weight of animal: 14.7 ± 0.5 g

## Y-type polyethylene glycol (40K)-glutamic acid dipeptide-rapamycin conjugate [LPR-3]
[12]; 10 mg/kg counted with rapamycin, i.v. Q2W×2W
  anti-tumor effect (in words): stronger antitumor activity than that of polyethylene glycol-rapamycin (LPR-1); also recorded: a certain anti-tumor effect
[12]; 10 mg/kg i.v. Q2W×2W
  Days for delaying tumor growth (to 1000 mm^3): >7 days
[12]; 10 mg/kg i.v. Q2W×2W, day 38, vs vehicle control
  Tumor control rate T/C (%): 47%
[12]; day 24 after inoculation
  Tumor volume: 358 ± 62 mm^3
[12]; day 27 after inoculation
  Tumor volume: 455 ± 85 mm^3
[12]; day 31 after inoculation
  Tumor volume: 569 ± 100 mm^3
[12]; day 34 after inoculation
  Tumor volume: 754 ± 151 mm^3
[12]; day 38 after inoculation
  Tumor volume: 848 ± 178 mm^3

## CO[C@H]1C[C@@H]2CC[C@@H](C)[C@@](O)(O2)C(=O)C(=O)N2CCCC[C@H]2C(=O)O[C@H]([C@H](C)C[C@@H]2CC[C@@H](O)[C@H](OC)C2)CC(=O)[C@H](C)/C=C(\C)[C@@H](O)[C@@H](OC)C(=O)[C@H](C)C[C@H](C)/C=C/C=C/C=C/1C [Rapamycin]
[13]
  stability: degraded even under physiological conditions
